Where “and” joins values, the source holds several entries; their conditions need not be identical. Equal entries are not always repeated.

For this experiment, the system named is Jurkat human lymphoid cells. Briefly: Lipid peroxide (LP) quantity in cells with or without UV irradiation, fluorescent probe, flow cytometry. Format: cell-based. To be noted: for Fluorescence intensity Mean: mean of triplicate; for % of control: relative LP quantity; for 1/fluorescence intensity: relative quantity of lipid peroxides. From the text:
The purpose of the study is to evaluate the effects of the maca peptide extract on the lipid peroxidation rate (LP) in human cells (Jurkat) exposed or not to UVA+UVB radiation. LP measurement was made with a specific fluorescent probe by flow cytometry. This method has the advantage of showing great sensitivity when measuring the fluorescence of individual cells, over a large number of cells (10 000 cells analysed per sample). The cells used are Jurkat human lymphoid cells distributed in 24-well plates with 8.10^5 cells/well. The culture medium is RPMI 1640 (Invitrogen 31870-025) at […] and in the presence of 5% CO2. The test medium is MEM without phenol red and without calf serum (Polylabo 5503401). Tests are conducted with the peptide extract obtained in example 1, with twofold dilution i.e. in the form of an extract with 5% dry matter. A solution S1 containing 2% of this extract is prepared in the test medium. The control used is butyl hydroxyanisol (BHA Sigma ref. B 1253) in a […] solution in absolute ethanol. Tests are conducted with a solution S2 containing 100 μM BHA prepared in the test medium. […] Rad. Biol. Med., 1997, 22, 13-100) in a 5 μM solution in absolute ethanol. The tests are conducted using a 1 μM probe solution S3 prepared in the test medium. The human cells are pre-incubated in the culture medium, then washed in the test medium. They are subsequently incubated in the presence of the S1 solution of the peptide extract or the S2 control solution. The probe solution S3 is added to each batch for LP assay. After 45 minutes incubation, the fluorescent probe is removed by washing in the test medium. Part of the batches are then irradiated with […], another part without irradiation used as control. After 20 minutes incubation the fluorescence parameters are measured by flow cytometry. Determination of the relative quantity of lipid peroxides (LP) is based on measurement of the reduction in fluorescence of the probe integrated in the cell membranes. An increase in the fluorescence signal translates a reduction in the basal rate of membrane lipid peroxides. The studies are conducted in triplicate. The results obtained are expressed as the value of fluorescence intensity, and percentages with respect to the control are calculated using the values of fluorescence intensity.

Regarding `COc1ccc(O)c(C(C)(C)C)c1` [BHA, butyl hydroxyanisol], the “Fluorescence intensity Mean” value is recorded as 374.67 (with UV irradiation, BHA 100 μM, extract 2% solution) and 753 (without UV, BHA 100 μM, 2% MC101). For the same molecule, the “% of control” value (with UV irradiation, Test +UV = 100) stood at 50% and the “% of control” value (without UV, Control -UV = 100) was found to be 67%. Also, the 1/fluorescence intensity is, setting by setting: (with UV irradiation) 0.00267; (without UV) 0.00133. For the same molecule, the Fluorescence intensity (with UV irradiation, single replicate values, BHA 100 μM, extract 2% solution) was 362.40 and 368.20 and 393.42. Besides, the “Fluorescence intensity n = 10000 cells” value (without UV, single replicate values, BHA 100 μM, 2% MC101) is 741.05 and 745.64 and 770.93.

(Values after patent US7473434B2, “Maca extract and cosmetic composition containing such an extract” (Laboratoires Expanscience, priority 2003, dated 2009).)
